Experimental data taken from patent publication US20260355164A1, “USE OF JUN INHIBITOR IN PREPARING MEDICAMENT FOR TREATING HEART FAILURE WITH PRESERVED EJECTION FRACTION” (Fuwai Hospital, Chinese Academy of Medical Sciences and …, priority 2022, published 2026).
Entries after “also recorded” stand apart in the source; their conditions may differ.

Legend:
Format in all cases: in vivo, mouse (C57BL/6N)
[1] = test system: mouse HFpEF model; assay: Echocardiography and Doppler imaging (systolic and diastolic function) in HFpEF model mice (HFD+L-NAME); settings: male mice
Text: (§1) Male C57BL/6N wild-type mice aged 8 to 10 weeks were divided into three groups, namely, normal group (normal diet and drinking water), model control group (high-fat diet combined with administration of N-nitro-L-arginine methyl ester) and model treatment group (high-fat diet combined with administration of N-nitro-L-arginine methyl ester and treatment with T-5224). Among them, the model control group and the model treatment group were modeled by the following literature: Gabriele G. Schiattarella et al., Nitrosative stress drives heart failure with preserved ejection fraction, https://doi.org/10.1038/s41586-019-1100-z. Specifically, heart failure with preserved ejection fraction was induced by a high-fat diet (HFD) (60% kcal, from fat (lard)) and N-nitro-L-arginine methyl ester (abbreviated as L-NAME, 0.5 g/L in drinking water) to obtain the HFpEF animal model. […]
All the mice were raised under different conditions for five weeks and then began to undergo conventional echocardiography and Doppler imaging, which was performed every two weeks until the end of the 15th week. […] All parameters were measured at least 3 times, and the mean values were provided. […]

[2] = test system: Jun; assay: Quantitative PCR detection of Jun expression in cardiomyocytes of HFpEF model mice; settings: HFD+L-NAME mice treated with T-5224, compared with the model control group; qPCR, b-Actin standardized; FIG. 3D
Text: as §1, with “https://doi.org/10.1038/s41586-019-1100-z.” for “https://doi.org/10.1038/s41586-019-1100-z. Specifically, heart failure with preserved ejection fraction was induced by a high-fat diet (HFD) (60% kcal, from fat (lard)) and N-nitro-L-arginine methyl ester (abbreviated as L-NAME, 0.5 g/L in drinking water) to obtain the HFpEF animal model.”
In the 15th week of model induction, the cardiomyocytes of normal group and the model control group were isolated by perfusion method, and quantitative RCR detection was performed. […]
Total RNA was extracted from cells using GeneJet RNA purification kit (Thermo Scientific, K0732), and […] of total RNA was reverse transcribed using iScript TM cDNA synthesis kit (Bio-Rad, 1708890) to generate cDNA. qPCR was performed using iTaqUniversl SYBR Green supermix (1725121, Bio-Rad) on ABI Vii7 real-time system (Life Technologies, Q6), and b-Actin was used for standardized quantitative analysis. […]

[3] = Changes in body weight / obesity of HFpEF model mice with different treatments; settings: HFD+L-NAME mice treated with T-5224 (total dose 250 mg/kg); FIG. 3C
Text: Male C57BL/6N wild-type mice aged 8 to 10 weeks were divided into three groups, namely, normal group (normal diet and drinking water), model control group (high-fat diet combined with administration of N-nitro-L-arginine methyl ester) and model treatment group (high-fat diet combined with administration of N-nitro-L-arginine methyl ester and treatment with T-5224). Among them, the model control group and the model treatment group were modeled by the following literature: Gabriele G. Schiattarella et al., Nitrosative stress drives heart failure with preserved ejection fraction, https://doi.org/10.1038/s41586-019-1100-z. Specifically, heart failure with preserved ejection fraction was induced by a high-fat diet (HFD) (60% kcal, from fat (lard)) and N-nitro-L-arginine methyl ester (abbreviated as L-NAME, 0.5 g/L in drinking water) to obtain the HFpEF animal model.
After the animal model was obtained, that was, from the 5′ week of inducing the HFpEF model, the model treatment group was treated with T-5224, the model control group was treated with a solvent without drug, and the mice with normal diet and drinking water during the whole induction process were used as negative control. The mice were administrated with drugs when they were raised for 5 weeks. For the treatment group, T-5224 was administered at 250 mg/kg according to the body weight of mice. […]

## O=C(O)CCc1cc(C(=O)c2ccc(OC3CCCC3)cc2O)ccc1OCc1ccc2c(O)noc2c1 [T-5224]
[1]; HFD+0.5 g/L L-NAME, T-5224 0.8 mg in 200 μL 1% PVP every other day, 5th to 13th week, total dose 250 mg/kg, followed to 15th week, FIG. 3B
  diastolic function (E/E′): significantly improved and could be maintained until the 15th week
[1]; HFD+L-NAME, cardiac function detection after T-5224 administration (from 5th week, total dose 250 mg/kg), FIG. 3A-B, 250 mg/kg
  occurrence and development of HFpEF: effectively alleviate the occurrence and development of HFpEF; also recorded: well suppressed
[2]
  expression of Jun in cardiomyocytes: down-regulated compared with the model control group
[3]
  mouse obesity (changes in body weight): improved
